# Reference: patent US20250270212A1, “CHIMERIC COMPOUNDS USEFUL IN TREATING DISEASES” (Padarn Therapeutics, Inc., priority 2021, published 2025)
# Where two headings read alike, the source gives them in different places.
# Assays:
# recombinant Wee1 protein = recombinant Wee1 protein (Homo sapiens (Human), UniProt P30291); assay: Wee1 enzymatic activity inhibition, ADP-Glo luminescence assay; assay type: biochemical; conditions: recombinant Wee1, PolyE4Y1 substrate, 1 h room temperature
# Procedure: Example A. Primary Assay Used to Determine Potency of Wee1 Enzymatic Activity Inhibition
# Compound activity was determined using recombinant Wee1 protein (BPS, Cat #40412) and PolyE4Y1 Substrate (Poly(Glu,Tyr) sodium salt, Sigma, Cat #P0275-25MG) in an in vitro enzymatic reaction. The enzymatic assay used to determine activity was a Luminescence assay using a Microplate Reader (BMG, ClarioStar Plus). The enzymatic reaction was carried out in assay buffer (40 mM TRIS-HCl pH 7.4-7.6, 20 mM MgCl2, 0.05 mM DTT, 0.1 mg/ml BSA, 5 mM MnCl2). The compounds were dispensed on a 384 well Diamond Well Plate (Axigen, Cat #P-384-120SQ-C-S) using the Biomek FX liquid handling system at 100× solutions of compounds in DMSO. 2×Wee1-PolyE4Y1 mix (final concentration 0.85 ng/μl of Wee1 and 0.2 μg/μl of PolyE4Y1) was prepared in 1× Assay buffer and 5.5 μl of mixture per well was added into 384w white Reaction plate with NBS (Corning, Cat #4513). 5.5 μl of PolyE4Y1 substrate w/o Wee1 in 1× buffer was used for negative control. Plates were centrifuged for 1 min at 100 g. Next step the Compounds were added to Reaction plate using Biomek station via following steps: 1 μl of 100× compounds (in DMSO) were mixed thoroughly with 49 μl of 2×10 μM ATP in Assay Buffer, then 5.5 μl of this mixture was added to Reaction plate with 5.5 μl of Wee1-PolyE4Y1 mix. Plates were centrifuged for 1 min at 100 g and incubated for 1 h at room temperature. Next 3 μL of ADP-Glo reagent (Promega, ADP-Glo™ Kinase Assay, Cat #V9102) per well was added. Plates were incubated for 30 minutes at room temperature. Then 6 μL of Kinase detection reagent (Promega, ADP-Glo™ Kinase Assay, Cat #V9102) per well was added and the Luminescence was measured using Microplate Reader. The % inhibition was then used to calculate the IC50 values. The IC50 values are shown in Table A, wherein “A” corresponds to IC50<0.01 μM, “B” corresponds to 0.01 μM≤IC50<0.1 μM, “C” 0.1 μM≤IC50<1 μM, and “D” corresponds to […].
# [1] = target: recombinant PARP1 (AA662-1014) protein (Homo sapiens (Human), UniProt P09874); assay: Tracer displacement fluorescence polarization assay; conditions: displacement of AlexaFluor488 tracer from NAD+-binding site, PARP1 25 nM
# Procedure: Example B. Tracer Displacement Fluorescence Polarization Assays
# Displacement of AlexaFlour488 marked tracer from the NAD+-binding site of recombinant PARP1 (AA662-1014) protein (OriGene, Cat #: AR09368PU-L) was measured in vitro using Fluorescence polarization assay. The reaction was carried out in assay buffer (50 mM TRIS-HCl pH 7.4-7.8, 150 mM NaCl, 10 mM MgCl2, 0.001% Triton-X). 2×PARP1 (final concentration 25 nM) was diluted in 1× Assay buffer and 10 μl of the solution per well was added into 384-well Black Non-Treated Reaction plate (Corning, Cat #4511). Plates were centrifuged for 1 min at 200 g. The compounds were prepared in a 384-well Diamond Well Plate (Axygen, Cat #P-384-120SQ-C-S) as 400× solutions in DMSO and were transferred into Reaction plate using the Biomek FX liquid handling system with intermediate dilution down to 10× working solution in assay buffer in a separate 384-well Diamond Well Plate (Axygen, Cat #P-384-120SQ-C-S) (2 μl per well). Plates were centrifuged for 1 min at 200 g and incubated for 15 min at room temperature in the dark. Then 8 μL per well of 2.5× Tracer AlexaFluor488 (final concentration 1 nM) diluted in 1× Assay buffer was added into Reaction plate. 1× Assay buffer was used to make blank samples for instrument calculations. Plates were incubated for 30 minutes at room temperature in the dark. Fluorescence polarization was measured using Microplate Reader (BMG, ClarioStar Plus). The % tracer displacement was used to calculate the IC50 values. The IC50 values are shown in Table A, wherein “A” corresponds to IC50<0.01 μM, “B” corresponds to 0.01 μM≤IC50<0.1 μM, “C” 0.1 μM≤IC50<[…], and “D” corresponds to […].
# MDA-MB-231 = assay: Cellular growth inhibition assay (CellTiter-Glo); assay type: cell-based; conditions: Homo sapiens
# Procedure: Example E. Cellular Growth Inhibition Assay
# HEK293 (Institute of Cytology Russian Academy of Science), MDA-MB-231 (ATCC, CRM-HTB-26), HCC1395 (ATCC, CRL-2324), HCC1937 (ATCC, CRL-2336), UWB1.289+BRCA1 (ATCC, CRL-2946) were seeded at a density of 500 cells per well in a 384-well clear bottom plate (Greiner Cat #781090) in 45 μl total volume of DMEM (PanEco, Cat #C420) or RPMI (PanEco, Cat #C330) or RPMI/MEBM (Lonza, Cat #CC-3151+CC-4136) with 10% FBS (HyClone, Cat #SV30160.03). Cells were allowed to adhere overnight at 370 C, 5% CO2. 500× compounds solutions in DMSO (Sigma Cat #D2650) were prepared into Cmpnds plate (Diamond Well Plate, Axigen, Cat #P-384-120SQ-C-S) and DMSO only control was included. 1 μl of 500× compounds (Cmpnds plate) was added to 49 μl of culture medium into Dilution plate (Diamond Well Plate, Axigen, Cat #P-384-120SQ-C-S), mixed and then 5 μl of 10× compounds solutions were transferred to cells followed by centrifugation at 100 g for 1 min. Final DMSO concentration was 0.2%. After 3 days of incubation, 10 μl of 1× compounds were added to cells. […]
# [2] = 120 h, MDA-MB-231, 5 days, read-out: MDA-MB-231 EC50 (μM) 5 days
# [3] = 168 h, MDA-MB-231, 7 days, read-out: MDA-MB-231 EC50 (μM) 7 days
# [4] = 240 h, MDA-MB-231, 10 days, read-out: MDA-MB-231 EC50 (μM) 10 days
# recombinant PARP1 (AA662-1014) protein, sequence (P09874 662-1014): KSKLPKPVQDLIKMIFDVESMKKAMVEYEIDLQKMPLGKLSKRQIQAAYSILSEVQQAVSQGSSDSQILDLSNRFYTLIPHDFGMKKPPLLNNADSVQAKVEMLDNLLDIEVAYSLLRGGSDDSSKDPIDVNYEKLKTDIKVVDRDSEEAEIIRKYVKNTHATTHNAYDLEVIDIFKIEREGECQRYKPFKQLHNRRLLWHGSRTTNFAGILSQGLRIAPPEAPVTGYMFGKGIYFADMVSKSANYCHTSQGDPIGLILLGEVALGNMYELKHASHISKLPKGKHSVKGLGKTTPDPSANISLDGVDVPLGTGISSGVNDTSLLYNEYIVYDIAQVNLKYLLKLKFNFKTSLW
# recombinant Wee1 protein, sequence (P30291 whole entry): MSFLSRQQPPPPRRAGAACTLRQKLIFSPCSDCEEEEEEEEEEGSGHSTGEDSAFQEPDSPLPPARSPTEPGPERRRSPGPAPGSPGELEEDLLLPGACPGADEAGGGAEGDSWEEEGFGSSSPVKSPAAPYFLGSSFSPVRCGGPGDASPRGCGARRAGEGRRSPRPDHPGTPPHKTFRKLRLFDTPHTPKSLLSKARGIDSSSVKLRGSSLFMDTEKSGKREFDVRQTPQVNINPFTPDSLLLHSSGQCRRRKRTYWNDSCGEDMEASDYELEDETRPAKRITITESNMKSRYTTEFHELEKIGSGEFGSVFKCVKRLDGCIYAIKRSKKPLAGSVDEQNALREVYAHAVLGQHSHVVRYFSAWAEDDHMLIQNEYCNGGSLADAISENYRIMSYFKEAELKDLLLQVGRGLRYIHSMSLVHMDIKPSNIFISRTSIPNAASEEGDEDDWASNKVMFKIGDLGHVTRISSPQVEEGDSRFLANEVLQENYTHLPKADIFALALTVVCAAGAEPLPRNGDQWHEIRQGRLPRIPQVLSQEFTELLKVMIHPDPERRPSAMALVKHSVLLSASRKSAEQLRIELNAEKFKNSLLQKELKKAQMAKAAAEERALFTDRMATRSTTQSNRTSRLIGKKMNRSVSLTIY
SMILES,EC50 (recombinant Wee1 protein),EC50 [1],EC50 (MDA-MB-231; [2]),EC50 (MDA-MB-231; [3]),EC50 (MDA-MB-231; [4])
"Cn1c(=O)c2cnc(Nc3ccc(N4CCN(C(=O)c5cc(Cc6n[nH]c(=O)c7ccccc67)ccc5F)CC4)cc3)nc2n1-c1ccccn1 [Compound 3, 4-{4-Fluoro-3-[(4-{4-[(2-methyl-3-oxo-1-pyridin-2-yl-2,3-dihydro-1H-pyrazolo[3,4-d]pyrimidin-6-yl)amino]phenyl}piperazin-1-yl)carbonyl]benzyl}phthalazin-1(2H)-one]",100 to 1000 nM,< 10 nM,3.75 µM,,
"Cn1c(=O)c2cnc(Nc3ccc(N4CCN(C(=O)c5cc(Cc6n[nH]c(=O)c7ccccc67)ccc5F)CC4)cc3)nc2n1-c1ncccn1 [Compound 11, 4-{4-Fluoro-3-[(4-{4-[(2-methyl-3-oxo-1-pyrimidin-2-yl-2,3-dihydro-1H-pyrazolo[3,4-d]pyrimidin-6-yl)amino]phenyl}piperazin-1-yl)carbonyl]benzyl}phthalazin-1(2H)-one]",10 to 100 nM,< 10 nM,8.76 µM,6.28 µM,3.6 µM
"Cn1c(=O)c2cnc(Nc3ccc(NC(=O)c4cc(Cn5c(=O)[nH]c(=O)c6c(F)cccc65)ccc4F)cc3)nc2n1-c1ccccn1 [Compound 33, 2-Fluoro-5-[(5-fluoro-2,4-dioxo-3,4-dihydroquinazolin-1(2H)-yl)methyl]-N-{4-[(2-methyl-3-oxo-1-pyridin-2-yl-2,3-dihydro-1H-pyrazolo[3,4-d]pyrimidin-6-yl)amino]phenyl}benzamide]",100 to 1000 nM,≥ 1 nM,> 10 µM,,
"Cn1c(=O)c2cnc(Nc3ccc(N4CCCC(c5nc6cccc(C(N)=O)c6[nH]5)C4)cc3)nc2n1-c1ccccn1 (stereo not drawn) [Compound 96, 2-[1-[4-[[2-methyl-3-oxo-1-(2-pyridyl)pyrazolo[3,4-d]pyrimidin-6-yl]amino]phenyl]-3-piperidyl]-3H-benzimidazole-4-carboxamide]",,10 to 100 nM,2.77 µM,,

# Next, values leading:
EC50 (recombinant Wee1 protein),EC50 [1],EC50 (MDA-MB-231; [2]),EC50 (MDA-MB-231; [3]),EC50 (MDA-MB-231; [4]),SMILES
10 to 100 nM,< 10 nM,4.89 µM,2.59 µM,1.49 µM,"C=CCn1c(=O)c2cnc(Nc3ccc(N4CCN(C(=O)c5cc(Cc6n[nH]c(=O)c7ccccc67)ccc5F)CC4)cc3)nc2n1-c1ccccn1 [Compound 10, 4-{3-[(4-{4-[(2-Allyl-3-oxo-1-pyridin-2-yl-2,3-dihydro-1H-pyrazolo[3,4-d]pyrimidin-6-yl)amino]phenyl}piperazin-1-yl)carbonyl]-4-fluorobenzyl}phthalazin-1(2H)-one]"
,< 10 nM,0.96 µM,0.8 µM,0.18 µM,"C=CCn1c(=O)c2cnc(Nc3ccc(N4CCN(C(=O)c5cc(Cn6c(=O)[nH]c(=O)c7c(F)cccc76)ccc5F)CC4)cc3)nc2n1-c1cccc(C(C)(C)O)n1 [Compound 16, 1-[[3-[4-[4-[[2-Allyl-1-[6-(1-hydroxy-1-methyl-ethyl)-2-pyridyl]-3-oxo-pyrazolo[3,4-d]pyrimidin-6-yl]amino]phenyl]piperazine-1-carbonyl]-4-fluoro-phenyl]methyl]-5-fluoro-quinazoline-2,4-dione]"
10 to 100 nM,< 10 nM,> 10 µM,,,"Cn1c(=O)c2cnc(Nc3ccc(N4CCN(C(=O)c5cc(Cn6c(=O)[nH]c(=O)c7c(F)cccc76)ccc5F)CC4)cc3)nc2n1-c1ccccn1 [Compound 18, 5-Fluoro-1-{4-fluoro-3-[(4-{4-[(2-methyl-3-oxo-1-pyridin-2-yl-2,3-dihydro-1H-pyrazolo[3,4-d]pyrimidin-6-yl)amino]phenyl}piperazin-1-yl)carbonyl]benzyl}quinazoline-2,4(1H,3H)-dione]"
10 to 100 nM,10 to 100 nM,0.98 µM,0.57 µM,0.08 µM,"C=CCn1c(=O)c2cnc(Nc3ccc(N4CCN(Cc5ccc(-c6[nH]c7cc(F)cc8c7c6CCNC8=O)cc5)CC4)cc3)nc2n1-c1cccc(C(C)(C)O)n1 [Compound 35, 2-[4-({4-[4-({2-Allyl-1-[6-(1-hydroxy-1-methylethyl)pyridin-2-yl]-3-oxo-2,3-dihydro-1H-pyrazolo[3,4-d]pyrimidin-6-yl}amino)phenyl]piperazin-1-yl}methyl)phenyl]-8-fluoro-1,3,4,5-tetrahydro-6H-azepino[5,4,3-cd]indol-6-one]"
